Assays:
[1] = target: T1, NK1 receptor (Cavia porcellus, UniProt P30547); assay: Test for NK1 receptor antagonist: substance P concentration-response in isolated guinea pig ileum, Schild analysis; type: cell-based; conditions: antagonism of substance P, 10 min pretreatment, Schild method
T1 construct: from tissue; host or cells: isolated guinea pig ileum
Method: (1) Test for NK1 Receptor Antagonist
The method used was according to the method proposed by S. Dion et al. (Dion et al., Life Sciences 41 (1987): 2269), to which minor modifications were made.
Guinea pigs were stunned by a blow on the head and were exsanguinated from the carotid artery and ileum was isolated. The ileum was mounted in an organ bath containing Tyrode's solution which was maintained at 32° C. and gased with 95% O2 and 5% CO2. The ileum was subjected to a resting tension of 1-gram and allowed to equilibrate for 20 minutes before the experiment was started. As a control, a concentration-response curve for substance P obtained in the absence of test compounds was used. The NK1 receptor antagonist activity of each test compound was determined by a concentration-response curve obtained by pretreating at least three concentrations of the test compound for 10 minutes and subsequently applying substance P in a cumulative manner. The Kb values were determined according to the method proposed by Schild and the results are shown in Table 1 (Schild Brit. J. Pharmacol. 14 (1959): 49).
The composition of the Tyrode's solution was as follows: NaCl=136.9, KCl=2.7, CaCl2.2H2O=2.5, MgCl2.6H2O=1.0, NaH2PO4.2H2O=0.4, NaHCO3=11.9, glucose=11.1 (mmol/L)

[2] = system: Guinea pigs; assay: Cystometry test on guinea pigs with cut spinal cord (effective bladder capacity); type: in vivo; conditions: guinea pig
Text: (2) Cystometry Test on Guinea Pigs
The method used was according to the method proposed by J S. Peterson et al. (Peterson J S. et al., J. Pharmacol. Methods 21 (1989): 231), to which minor modifications were made.
Guinea pigs were anesthetized with halothane and the tenth thoracic spinal cord was cut in each animal. Subsequently, both ureters were ligated and were cut on the kidney-side. Polyethylene catheters were inserted into the bladder to provide an injection pathway for physiological saline and a pathway for the measurement of intravesical pressure. Each animal was restricted in a Ballman cage and was left for more than 2 hours. Subsequently, room-temperature saline was injected through the bladder catheter into the bladder at a rate of 6 mL/hr to conduct a cystometry test. After the effective bladder capacity was stabilized, a test compound was intravenously administered from the jugular vein. The effective bladder capacity is defined as the volume of saline injected from one urination to the next. The effect of each test compound was determined as the increase in the average bladder volume, which was determined by taking difference between the average bladder volume measured 30 minutes prior to the administration of the test compound and the average bladder volume measured every 30 minutes after the administration of the test compound.

T1 sequence (P30547 whole entry): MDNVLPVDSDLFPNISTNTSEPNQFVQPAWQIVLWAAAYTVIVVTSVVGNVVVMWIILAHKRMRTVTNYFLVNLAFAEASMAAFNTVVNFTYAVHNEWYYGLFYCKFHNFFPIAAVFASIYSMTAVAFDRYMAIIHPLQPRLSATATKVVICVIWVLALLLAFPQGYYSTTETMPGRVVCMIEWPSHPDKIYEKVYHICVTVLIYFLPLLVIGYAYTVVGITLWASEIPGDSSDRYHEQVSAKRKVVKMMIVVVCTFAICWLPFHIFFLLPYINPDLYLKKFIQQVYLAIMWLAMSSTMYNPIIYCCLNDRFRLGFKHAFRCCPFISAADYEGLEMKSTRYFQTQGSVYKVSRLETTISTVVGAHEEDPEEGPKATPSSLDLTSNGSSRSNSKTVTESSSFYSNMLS

Kb [1] | SMILES | Increase in bladder capacity ([2]; 0.3 mg/kg i.v.) | Increase in bladder capacity ([2]; 1 mg/kg i.v.) | Increase in bladder capacity ([2]; 3 mg/kg i.v.)
170 pM | CC(=O)NC1CCN(c2cc(-c3ccccc3C)c3c(n2)OCCCN(Cc2cc(C(F)(F)F)cc(C(F)(F)F)c2)C3=O)CC1 [Example 13, 9-[4-(acetylamino)piperidine-1-yl]-5-[3,5-bis(trifluoromethyl)benzyl]-7-(2-methylphenyl)-6-oxo-2,3,4,5-tetrahydro-6H-pyrido[2,3-b][1,5]oxazocine] |  |  | 
148 pM | O=C1c2c(-c3ccc(F)cc3)cc(N3CCC(N4CCCC4)CC3)nc2OCCCN1Cc1cc(C(F)(F)F)cc(C(F)(F)F)c1 [Example 4, 5-[3,5-bis(trifluoromethyl)benzyl]-7-(4-fluorophenyl)-6-oxo-9-[4-(pyrrolidine-1-yl)piperidine-1-yl]-2,3,4,5-tetrahydro-6H-pyrido[2,3-b][1,5]oxazocine] |  |  | 
 | Cc1ccc(-c2c3n(c(=O)c4ncccc24)CC[C@@H](C)CN(Cc2cc(C(F)(F)F)cc(C(F)(F)F)c2)C3=O)cc1 [TAK-637] | 12.0% | 23.8% | 20.5%
84.8 pM | Cc1ccccc1-c1cc(N2CCC(N3CCOCC3)CC2)nc2c1C(=O)N(Cc1cc(C(F)(F)F)cc(C(F)(F)F)c1)CCCO2 [Example 9, 5-[3,5-bis(trifluoromethyl)benzyl]-7-(2-methylphenyl)-9-[4-(morpholine-4-yl)piperidine-1-yl]-6-oxo-2,3,4,5-tetrahydro-6H-pyrido[2,3-b][1,5]oxazocine] |  |  | 
224 pM | O=C1c2c(-c3ccccc3)cc(N3CCC(N4CCCC4)CC3)nc2OCCCN1Cc1cc(C(F)(F)F)cc(C(F)(F)F)c1 [Example 1, 5-[3,5-bis(trifluoromethyl)benzyl]-6-oxo-7-phenyl-9-[4-(pyrrolidine-1-yl)piperidine-1-yl]-2,3,4,5-tetrahydro-6H-pyrido[2,3-b][1,5]oxazocine] |  |  | 
275 pM | Cc1ccccc1-c1cc(N2CCC(N(C)C)CC2)nc2c1C(=O)N(Cc1cc(C(F)(F)F)cc(C(F)(F)F)c1)CCCO2 [Example 8, 5-[3,5-bis(trifluoromethyl)benzyl]-9-[4-(dimethylamino)piperidine-1-yl]-7-(2-methylphenyl)-6-oxo-2,3,4,5-tetrahydro-6H-pyrido[2,3-b][1,5]oxazocine] |  |  | 
210 pM | Cc1ccccc1-c1cc(N2CCC(N3CCCC3)CC2)nc2c1C(=O)N(Cc1cc(C(F)(F)F)cc(C(F)(F)F)c1)CCCO2 [Example 7, 5-[3,5-bis(trifluoromethyl)benzyl]-7-(2-methylphenyl)-6-oxo-9-[4-(pyrrolidine-1-yl)piperidine-1-yl]-2,3,4,5-tetrahydro-6H-pyrido[2,3-b][1,5]oxazocine] | 24.2% | 46.0% | 
286 pM | Cc1ccccc1-c1cc(N2CCC(N3CCCC3=O)CC2)nc2c1C(=O)N(Cc1cc(C(F)(F)F)cc(C(F)(F)F)c1)CCCO2 [Example 10, 5-[3,5-bis(trifluoromethyl)benzyl]-7-(2-methylphenyl)-6-oxo-9-[4-(2-oxopyrrolidine-1-yl)piperidine-1-yl]-2,3,4,5-tetrahydro-6H-pyrido[2,3-b][1,5]oxazocine] |  |  | 

— patent publication US7030107B2, “Fused bicyclic pyridine derivatives as tachykinin receptor antagonists” (Kyorin Pharmaceutical.Co., Ltd., priority 2001, dated 2006)
